Experiment [1] deals with HLA-A2*0201 (Homo sapiens, UniProt P04439, D140Y/D185E/D98H/E176V/E277Q/G131W/G231S/I119V/I121R/I166T/I218V/L300P/L318F/N151K/N90K/P208A/P217A/Q86G/Q94H/R138H/R169H/T345S). It is filed as cell-based.
In experiment [2] the target is HLA-A2 (Homo sapiens, UniProt P04439, D140Y/D185E/D98H/E176V/E277Q/G131W/G231S/I119V/I121R/I166T/I218V/L300P/L318F/N151K/N90K/P208A/P217A/Q86G/Q94H/R138H/R169H/T345S). To be noted: earlier reports; cited from earlier work.

Entries after “also recorded” stand apart in the source; their conditions may differ.

Regarding ALDVYNGLL [PAP.299, reference compound], the “binding to HLA-A2 (T2 cells)” value in experiment [1] is listed as “no significant binding; also recorded: unable to confirm the strong HLA-A2 binding”. The “HLA-A2 binding previously described” value in experiment [2] is “strong HLA-A2 binding”.
